# Target: T1, human factor Xa (Homo sapiens, UniProt P00742)
# T1 construct: 25 μl human factor Xa (Enzyme Research Laboratories, Inc; South Bend, Ind.) in TBS-PEG; purchased Enzyme Research Laboratories, Inc; South Bend, Ind
# Assay: Factor Xa assay (chromogenic, purified enzyme)
# Type: biochemical
# Details: inhibition constant for factor Xa; chromogenic substrate S-2765 140 μM, enzyme 0.5 nM, 25° C., pH 7.8; Ki calculated from IC50 (Ki=IC50/{1+(substrate concentration/Km)}); read-out: Ki(FXa)
# Protocol: The ability of the compounds of the formula I to inhibit factor Xa or factor VIIa or other enzymes like thrombin, plasmin, or trypsin can be assessed by determining the concentration of the compound of the formula I that inhibits enzyme activity by 50%, i. e. the IC50 value, which was related to the inhibition constant Ki. Purified enzymes were used in chromogenic assays. The concentration of inhibitor that causes a 50% decrease in the rate of substrate hydrolysis was determined by linear regression after plotting the relative rates of hydrolysis (compared to the uninhibited control) versus the log of the concentration of the compound of formula I. For calculating the inhibition constant Ki, the IC50 value was corrected for competition with substrate using the formula Ki=IC50/{1+(substrate concentration/Km)} wherein Km is the Michaelis-Menten constant (Chen and Prusoff, Biochem. Pharmacol. 22 (1973), 3099-3108; I. H. Segal, Enzyme Kinetics, 1975, John Wiley & Sons, New York, 100-125; which were incorporated herein by reference). a) Factor Xa Assay
# In the assay for determining the inhibition of factor Xa activity TBS-PEG buffer (50 mM Tris-HCl, pH 7.8, 200 mM NaCl, 0.05% (w/v) PEG-8000, 0.02% (w/v) NaN3) was used. The IC50 was determined by combining in appropriate wells of a Costar half-area microtiter plate 25 μl human factor Xa (Enzyme Research Laboratories, Inc.; South Bend, Ind.) in TBS-PEG; 40 μl 10% (v/v) DMSO in TBS-PEG (uninhibited control) or various concentrations of the compound to be tested diluted in 10% (v/v) DMSO in TBS-PEG; and substrate S-2765 (N(α)-benzyloxycarbonyl-D-Arg-Gly-L-Arg-p-nitroanilide; Kabi Pharmacia, Inc.; Franklin, Ohio) in TBS-PEG.
# The assay was performed by pre-incubating the compound of formula I plus enzyme for 10 min. Then the assay was initiated by adding substrate to obtain a final volume of 100 μl. The initial velocity of chromogenic substrate hydrolysis was measured by the change in absorbance at 405 nm using a Bio-tek Instruments kinetic plate reader (Ceres UV900HDi) at 25° C. during the linear portion of the time course (usually 1.5 min after addition of substrate). The enzyme concentration was 0.5 nM and substrate concentration was 140 μM.
# T1 sequence (P00742 235-488 limits assumed): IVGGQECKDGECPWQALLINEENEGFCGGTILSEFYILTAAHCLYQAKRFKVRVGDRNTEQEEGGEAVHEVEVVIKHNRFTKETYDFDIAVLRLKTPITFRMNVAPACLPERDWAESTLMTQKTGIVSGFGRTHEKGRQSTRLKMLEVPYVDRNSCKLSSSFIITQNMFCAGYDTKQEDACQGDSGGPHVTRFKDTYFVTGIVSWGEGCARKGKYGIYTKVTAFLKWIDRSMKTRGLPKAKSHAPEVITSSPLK
# T1 sequence (P00742 41-179 partner limits assumed): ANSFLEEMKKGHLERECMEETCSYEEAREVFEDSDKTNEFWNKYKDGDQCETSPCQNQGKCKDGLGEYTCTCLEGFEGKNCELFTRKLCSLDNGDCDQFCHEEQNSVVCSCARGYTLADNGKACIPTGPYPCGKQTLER
row,SMILES,Ki [nM]
1,"CC(C)N1CCC(NC(=O)c2cncn2Cc2cc(-c3ccc(Cl)s3)on2)CC1 [Example 1, 3-[5-(5-Chloro-thiophen-2-yl)-isoxazol-3-ylmethyl]-3H-imidazole-4-carboxylic acid (1-isopropyl-piperidin-4-yl)-amide]",65
2,"CC(C)N1CCC(NC(=O)c2c(Cl)nc(-c3ccccc3)n2Cc2cc(-c3ccc(Cl)s3)on2)CC1 [Example 3, 5-Chloro-3-[5-(5-chloro-thiophen-2-yl)-isoxazol-3-ylmethyl]-2-phenyl-3H-imidazole-4-carboxylic acid (1-isopropyl-piperidin-4-yl)-amide]",7
3,"CCc1nc(C)c(C(=O)NC2CCN(C(C)C)CC2)n1Cc1cc(-c2ccc(Cl)s2)on1 [Example 5, 3-[5-(5-Chloro-thiophen-2-yl)-isoxazol-3-ylmethyl]-2-ethyl-5-methyl-3H-imidazole-4-carboxylic acid (1-isopropyl-piperidin-4-yl)-amide]",27
4,"CCc1nc(C(=O)NC2CCN(C(C)C)CC2)c(C)n1Cc1cc(-c2ccc(Cl)s2)on1 [Example 6, 1-[5-(5-Chloro-thiophen-2-yl)-isoxazol-3-ylmethyl]-2-ethyl-5-methyl-1H-imidazole-4-carboxylic acid (1-isopropyl-piperidin-4-yl)-amide]",530
5,"Cc1nc(I)n(Cc2cc(-c3ccc(Cl)s3)on2)c1C(=O)NC1CCN(C(C)C)CC1 [Example 7, 3-[5-(5-Chloro-thiophen-2-yl)-isoxazol-3-ylmethyl]-2-iodo-5-methyl-3H-imidazole-4-carboxylic acid (1-isopropyl-piperidin-4-yl)-amide]",1
6,"COCc1ncc(C(=O)NC2CCN(C(C)C)CC2)n1Cc1cc(-c2ccc(Cl)s2)on1 [Example 9, 3-[5-(5-Chloro-thiophen-2-yl)-isoxazol-3-ylmethyl]-2-methoxymethyl-3H-imidazole-4-carboxylic acid (1-isopropyl-piperidin-4-yl)-amide]",86
7,"CC(C)N1CCC(NC(=O)c2cnc(C3CC3)n2Cc2cc(-c3ccc(Cl)s3)on2)CC1 [Example 11, 3-[5-(5-Chloro-thiophen-2-yl)-isoxazol-3-ylmethyl]-2-cyclopropyl-3H-imidazole-4-carboxylic acid (1-isopropyl-piperidin-4-yl)-amide]",4
8,"CC(C)N1CCC(NC(=O)c2cnc(-c3c(F)cccc3F)n2Cc2cc(-c3ccc(Cl)s3)on2)CC1 [Example 12, 3-[5-(5-Chloro-thiophen-2-yl)-isoxazol-3-ylmethyl]-2-(2,6-difluoro-phenyl)-3H-imidazole-4-carboxylic acid (1-isopropyl-piperidin-4-yl)-amide]",18
9,"COCCc1ncc(C(=O)NC2CCN(C(C)C)CC2)n1Cc1cc(-c2ccc(Cl)s2)on1 [Example 14, 3-[5-(5-Chloro-thiophen-2-yl)-isoxazol-3-ylmethyl]-2-(2-methoxy-ethyl)-3H-imidazole-4-carboxylic acid (1-isopropyl-piperidin-4-yl)-amide]",401
10,"CC(C)N1CCC(NC(=O)c2cnc(-c3c(Cl)cccc3Cl)n2Cc2cc(-c3ccc(Cl)s3)on2)CC1 [Example 15, 3-[5-(5-Chloro-thiophen-2-yl)-isoxazol-3-ylmethyl]-2-(2,6-dichloro-phenyl)-3H-imidazole-4-carboxylic acid (1-isopropyl-piperidin-4-yl)-amide]",56
11,"CC(C)c1ncc(C(=O)NC2CCN(C(C)C)CC2)n1Cc1cc(-c2ccc(Cl)s2)on1 [Example 16, 3-[5-(5-Chloro-thiophen-2-yl)-isoxazol-3-ylmethyl]-2-isopropyl-3H-imidazole-4-carboxylic acid (1-isopropyl-piperidin-4-yl)-amide]",254
12,"CC(C)N1CCC(NC(=O)c2cnc(-c3ccccn3)n2Cc2cc(-c3ccc(Cl)s3)on2)CC1 [Example 17, 3-[5-(5-Chloro-thiophen-2-yl)-isoxazol-3-ylmethyl]-2-pyridin-2-yl-3H-imidazole-4-carboxylic acid (1-isopropyl-piperidin-4-yl)-amide]",112

# Other lines, results leading:
row,Ki [nM],SMILES
1,7,"Cc1nc(-c2ccccc2)n(Cc2cc(-c3ccc(Cl)s3)on2)c1C(=O)NC1CCN(C(C)C)CC1 [Example 18, 3-[5-(5-Chloro-thiophen-2-yl)-isoxazol-3-ylmethyl]-5-methyl-2-phenyl-3H-imidazole-4-carboxylic acid (1-isopropyl-piperidin-4-yl)-amide]"
2,358,"CC(C)N1CCC(NC(=O)c2cnc(-c3cccnc3)n2Cc2cc(-c3ccc(Cl)s3)on2)CC1 [Example 20, 3-[5-(5-Chloro-thiophen-2-yl)-isoxazol-3-ylmethyl]-2-pyridin-3-yl-3H-imidazole-4-carboxylic acid (1-isopropyl-piperidin-4-yl)-amide]"
3,243,"Cc1nc(-c2ncc(C(=O)NC3CCN(C(C)C)CC3)n2Cc2cc(-c3ccc(Cl)s3)on2)cs1 [Example 21, 3-[5-(5-Chloro-thiophen-2-yl)-isoxazol-3-ylmethyl]-2-(2-methyl-thiazol-4-yl)-3H-imidazole-4-carboxylic acid (1-isopropyl-piperidin-4-yl)-amide]"
4,6,"CCS(=O)(=O)c1ncc(C(=O)NC2CCN(C(C)C)CC2)n1Cc1cc(-c2ccc(Cl)s2)on1 [Example 23, 3-[5-(5-Chloro-thiophen-2-yl)-isoxazol-3-ylmethyl]-2-ethanesulfonyl-3H-imidazole-4-carboxylic acid (1-isopropyl-piperidin-4-yl)-amide]"
5,22,"Cc1nc(C(N)=O)n(Cc2cc(-c3ccc(Cl)s3)on2)c1C(=O)NC1CCN(C(C)C)CC1 [Example 24, 3-[5-(5-Chloro-thiophen-2-yl)-isoxazol-3-ylmethyl]-5-methyl-3H-imidazole-2,4-dicarboxylic acid 2-amide 4-[(1-isopropyl-piperidin-4-yl)-amide]]"
6,3,"Cc1nc(Br)n(Cc2cc(-c3ccc(Cl)s3)on2)c1C(=O)NC1CCN(C(C)C)CC1 [Example 26, 2-Bromo-3-[5-(5-chloro-thiophen-2-yl)-isoxazol-3-ylmethyl]-5-methyl-3H-imidazole-4-carboxylic acid (1-isopropyl-piperidin-4-yl)-amide]"
7,140,"CC(C)N1CCC(NC(=O)c2cncn2CC(=O)Nc2ccc(Cl)cn2)CC1 [Example 29, 3-[(5-Chloro-pyridin-2-ylcarbamoyl)-methyl]-3H-imidazole-4-carboxylic acid (1-isopropyl-piperidin-4-yl)-amide]"
8,35,"COCc1ncc(C(=O)NC2CCN(C(C)C)CC2)n1CC(=O)Nc1ccc(Cl)cc1 [Example 30, 3-[(4-Chloro-phenylcarbamoyl)-methyl]-2-methoxymethyl-3H-imidazole-4-carboxylic acid (1-isopropyl-piperidin-4-yl)-amide]"
9,103,"CC(C)N1CCC(NC(=O)c2c(Cl)nc(-c3ccccc3)n2CC(=O)Nc2ccc(Cl)cn2)CC1 [Example 33, 5-Chloro-3-[(5-chloro-pyridin-2-ylcarbamoyl)-methyl]-2-phenyl-3H-imidazole-4-carboxylic acid (1-isopropyl-piperidin-4-yl)-amide]"
10,8,"CCOC(=O)c1ncc(C(=O)NC2CCN(C(C)C)CC2)n1Cc1cc(-c2ccc(Cl)s2)on1 [Example 37, 1-[5-(5-Chloro-thiophen-2-yl)-isoxazol-3-ylmethyl]-5-(1-isopropyl-piperidin-4-ylcarbamoyl)-1H-imidazole-2-carboxylic acid ethyl ester]"
11,174,"CC(C)N1CCC(NC(=O)c2nc(C(=O)OC(C)(C)C)cn2Cc2cc(-c3ccc(Cl)s3)on2)CC1 [Example 38, 1-[5-(5-Chloro-thiophen-2-yl)-isoxazol-3-ylmethyl]-2-(1-isopropyl-piperidin-4-ylcarbamoyl)-1H-imidazole-4-carboxylic acid tert-butyl ester]"
12,117,"CC(C)N1CCC(NC(=O)c2nc(C(=O)O)cn2Cc2cc(-c3ccc(Cl)s3)on2)CC1 [Example 39, 1-[5-(5-Chloro-thiophen-2-yl)-isoxazol-3-ylmethyl]-2-(1-isopropyl-piperidin-4-ylcarbamoyl)-1H-imidazole-4-carboxylic acid]"
13,20,"COC(=O)c1cn(Cc2cc(-c3ccc(Cl)s3)on2)c(C(=O)NC2CCN(C(C)C)CC2)n1 [Example 40, 1-[5-(5-Chloro-thiophen-2-yl)-isoxazol-3-ylmethyl]-2-(1-isopropyl-piperidin-4-ylcarbamoyl)-1H-imidazole-4-carboxylic acid methyl ester]"

# Source: patent publication US7358268B2, “Imidazole derivatives as factor Xa inhibitors” (Sanofi-Aventis Deutschland GmbH, priority 2002, dated 2008)
